This is an account of results in patent US20060074109A1, “Use of inhibitors of 24-hydroxylase in the treatment of cancer” (Sapphire Therapeutics, Inc., priority 2004, published 2006).

The target of data set [1] is T1, 1αOHase in OVCAR-3 cells (Homo sapiens, UniProt O15528).
T1 construct: showing the expression of 1αOHase in OVCAR-3 cells; endogenous in cells; host or cells: OVCAR-3
T1 sequence (O15528 1-508): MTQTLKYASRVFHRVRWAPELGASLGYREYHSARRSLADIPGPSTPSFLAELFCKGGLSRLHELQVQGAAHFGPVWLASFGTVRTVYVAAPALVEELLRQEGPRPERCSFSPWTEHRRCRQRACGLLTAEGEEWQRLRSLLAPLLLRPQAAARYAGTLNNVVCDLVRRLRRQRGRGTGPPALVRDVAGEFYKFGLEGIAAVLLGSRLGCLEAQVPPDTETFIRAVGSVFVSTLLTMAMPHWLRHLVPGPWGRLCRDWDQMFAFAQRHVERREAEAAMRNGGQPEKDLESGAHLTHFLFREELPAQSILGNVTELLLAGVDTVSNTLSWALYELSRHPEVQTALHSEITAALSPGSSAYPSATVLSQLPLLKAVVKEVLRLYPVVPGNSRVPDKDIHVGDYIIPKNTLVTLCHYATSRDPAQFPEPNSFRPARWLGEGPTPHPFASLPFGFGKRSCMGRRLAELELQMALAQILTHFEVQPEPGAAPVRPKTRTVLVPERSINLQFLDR
Briefly: Metabolic analysis of 25(OH)D3: 1,25(OH)2D3 production. Format: cell-based. Here is the method: (§1) OVCAR-3 cells (1.5×10^6 cell/flask) were plated on T25 culture flasks. One day after plating, cells were treated with 500 nM 25(OH)D3 in RPMI 1640 medium supplemented with 10% FBS, 10 μg/ml insulin, 0.25% glucose and antibiotics (100 IU/ml penicillin, 100 μg/ml streptomycin). After 0, 3 or 24 hr, the medium was collected and the cell monolayer was extracted with 1 ml methanol. After 15 min incubation at room temperature, the methanol was transformed into the same tube than the sample medium. The samples for the measurement of the 25(OH)D3 metabolites were purified using the acetonitrile-C 18 Sep-Pak (Waters Corporation, Milford, Mass.) procedure (Turnbull, H., Trafford, D. J., Makin, H. L., “A Rapid and Simple Method for the Measurement of Plasma 25-hydroxyvitamin D2 and 25-hydroxyvitamin D3 Using Sep-Pak C 18 Cartridges and a Single High-Performance Liquid Chromatographic Step,” Clin. Chim. Acta., 120:65-76 (1982)) followed by separation of the metabolites by a high-performance liquid chromatography. […] The second measurement was done following the same procedure except dextran charcoal-treated FBS was used instead of FBS, 24OHase inhibitor (200 nM VID400) was used with the 500 nM 25(OH)D3 treatment, and the samples were collected only after 0 and 24 hr.

The target of data set [2] is T2, 24OHase in OVCAR-3 cells (Homo sapiens, UniProt Q07973).
T2 construct: Also, 24OHase is expressed in OVCAR-3 cells; endogenous in cells; host or cells: OVCAR-3
T2 sequence (Q07973 36-514): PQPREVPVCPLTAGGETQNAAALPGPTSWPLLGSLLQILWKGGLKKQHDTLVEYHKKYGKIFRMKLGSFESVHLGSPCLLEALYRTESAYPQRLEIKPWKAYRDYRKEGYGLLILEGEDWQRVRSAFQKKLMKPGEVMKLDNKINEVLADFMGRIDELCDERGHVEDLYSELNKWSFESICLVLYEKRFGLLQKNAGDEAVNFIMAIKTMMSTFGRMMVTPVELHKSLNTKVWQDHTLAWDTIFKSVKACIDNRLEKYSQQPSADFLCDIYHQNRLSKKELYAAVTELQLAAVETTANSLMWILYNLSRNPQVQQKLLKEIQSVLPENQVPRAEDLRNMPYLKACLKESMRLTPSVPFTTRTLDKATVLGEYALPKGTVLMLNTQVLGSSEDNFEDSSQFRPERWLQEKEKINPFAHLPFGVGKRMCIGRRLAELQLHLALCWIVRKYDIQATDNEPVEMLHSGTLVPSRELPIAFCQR
The experiment in a line: Metabolic analysis of 25(OH)D3: 24,25(OH)2D3 production. The data set is classed as cell-based. Particulars: for amount of 24,25(OH)2D3 relative to 0 hr: first experiment. Here is the method: as §1

[3] abbreviates: 500 nM 25(OH)D3, 0 hr, experiment I (FBS).
Where [4] appears, read: 500 nM 25(OH)D3, 3 hr, experiment I (FBS).
Where [5] appears, read: 500 nM 25(OH)D3, 24 hr, experiment I (FBS).
[6] abbreviates: 500 nM 25(OH)D3, 24 hr, experiment II (dextran charcoal-treated FBS).
Setting [7] is: 200 nM VID400 + 500 nM 25(OH)D3, 24 hr, second experiment.
The mark [8] stands for this setting: 500 nM 25(OH)D3 + 200 nM VID400, 24 hr, experiment II (dextran charcoal-treated FBS).

Consider `C=C1CC[C@H](O)C/C1=C/C=C1\CCC[C@]2(C)[C@@H]([C@H](C)CCCC(C)(C)O)CC[C@@H]12` [25(OH)D3, monohydroxyvitamin D3], for which the “1,25(OH)2D3” value turned out to be 23 pM in data set [1] (setting [3]), 37 pM in data set [1] (setting [4]), 33 pM in data set [1] (setting [5]) and 28 pM in data set [1] (setting [6]). Also, the “24,25(OH)2D3” value turned out to be 6 nM in data set [2] (setting [3]); 1 nM in data set [2] (500 nM 25(OH)D3, 0 hr, experiment II (dextran charcoal-treated FBS)); 24 nM in data set [2] (setting [4]); 112 nM in data set [2] (setting [5]); 27 nM in data set [2] (setting [6]). Further, the “amount of 24,25(OH)2D3 relative to 0 hr” value stood at 4 times in data set [2] (500 nM 25(OH)D3, 3 hr) and 18 fold in data set [2] (500 nM 25(OH)D3, 24 hr). The “concentration of 24,25(OH)2D3 relative to 0 hr” value in data set [2] (500 nM 25(OH)D3, 24 hr, second experiment) was 27 times.
Consider `O=C(NC[C@@H](c1ccccc1)n1ccnc1)c1ccc(-c2ccc(Cl)cc2)cc1` [VID400, 2-(R)-4′-Chlorobiphenyl-4-carboxylic acid (2-imidazol-1-yl-2-phenyl-ethyl)-amide], for which, in data set [1] (setting [7]), the “effect on production of 1,25(OH)2D3” value is given as “did not have an effect on production of 1,25(OH)2D3”. Also, the “1,25(OH)2D3” value in data set [1] (setting [8]) worked out at 27 pM. Further, the “production of 24,25(OH)2D3 compared to 500 nM 25(OH)D3 treatment alone” value in data set [2] (setting [7]) was “reduced to one-third”. In addition, in data set [2] (setting [8]), the “24,25(OH)2D3” value amounted to 8 nM.
